Results on six compounds are retold here after article PMC8641298 (ACS infectious diseases, 2020).

The test system of one series is S. mansoni adults. Description: In vitro phenotypic screen of S. mansoni adults. It counts as cell-based, Schistosoma mansoni. The following applies: 5 μM.
The next series concerns S. mansoni somules. Description: In vitro phenotypic screen of S. mansoni somules. It counts as cell-based, Schistosoma mansoni.
The test system of a further series is adult S. mansoni. Kind of series: WormAssay, average adult worm motility. It counts as cell-based, Schistosoma mansoni. The following applies: 5 μM, 5 h; DMSO control 104.1 ± 24.4.
The next series in a line: HeLa cytotoxicity. Format: cell-based. The following applies: human, HeLa cells.
The next series can be described thus: HEK293 cytotoxicity. It counts as cell-based. The following applies: human.
The mark [1] stands for this setting: HEK293 cells (method text: HEK 293T).

Structures are written as SMILES.

In the case of `C[C@H](Nc1cc(Cl)nc(-c2cccs2)n1)C(F)(F)F` [Compound 31, (S)-6-chloro-2-(thiophen-2-yl)-N-(1,1,1-trifluoropropan-2-yl)pyrimidin-4-amine], in the series on S. mansoni adults, the “Phenotypic descriptors, adults (5 μM) 5 h” value was “N”; the “Phenotypic descriptors, adults (5 μM) 24 h” value is “N”; the “Phenotypic descriptors, adults (5 μM) 48 h” value was “N”. In the series on S. mansoni somules, the “Phenotypic descriptors, somules (1 μM) 24 h” value is reported as “R, unc”; the “Phenotypic descriptors, somules (1 μM) 48 h” value was “N”; the “Phenotypic descriptors, somules (10 μM) 24 h” value is listed as “R, unc”; the “Phenotypic descriptors, somules (10 μM) 48 h” value was “N”. The “WormAssay (average adult worm movement ± SD)” value with adult S. mansoni was 89.0 ± 18.6.

Broadly, the CC50 is the concentration that lowers cell viability or growth by half. Low readings indicate harm at low concentration, high ones better tolerance by the cells. On to `C[C@@H](Nc1nc(-c2cccs2)nc(Cl)c1-c1c(F)cc(F)cc1F)C(F)(F)F` [Compound 27, (R)-6-chloro-2-(thiophen-2-yl)-5-(2,4,6-trifluorophenyl)-N-(1,1,1-trifluoropropan-2-yl)pyrimidin-4-amine], for which, in the series with S. mansoni adults, the “Phenotypic descriptors, adults (5 μM) 5 h” value was “I, on sides”; the “Phenotypic descriptors, adults (5 μM) 24 h” value was “I, on sides”; the “Phenotypic descriptors, adults (5 μM) 48 h” value is given as “I, on sides”. In “HeLa cytotoxicity”, the CC50 at 48 h is 27.7 ± 10.4 µM. In “HEK293 cytotoxicity” (setting [1]), this compound returned a CC50 at 48 h of 29400 nM. In addition, in the series with S. mansoni somules, the “Phenotypic descriptors, somules (1 μM) 24 h” value is recorded as “R, S”; the “Phenotypic descriptors, somules (1 μM) 48 h” value is “R”; the “Phenotypic descriptors, somules (10 μM) 24 h” value is recorded as “R, I”; the “Phenotypic descriptors, somules (10 μM) 48 h” value is “R, I”. Moreover, the “WormAssay (average adult worm movement ± SD)” value in the series with adult S. mansoni came to 6.3 ± 9.3.

As for `CNCCCOc1cc(F)c(-c2c(Cl)nc3ncnn3c2N[C@@H](C)C(F)(F)F)c(F)c1` [Compound 12, cevipabulin, reference compound], the CC50 at 48 h in “HEK293 cytotoxicity” was found to be 28 nM.

With `Fc1cc(F)c(-c2cnc(-c3cccs3)nc2Cl)c(F)c1` [Compound 32, 4-chloro-2-(thiophen-2-yl)-5-(2,4,6-trifluorophenyl)pyrimidine], in the series with S. mansoni adults, the “Phenotypic descriptors, adults (5 μM) 5 h” value is recorded as “N”; the “Phenotypic descriptors, adults (5 μM) 24 h” value is “N”; the “Phenotypic descriptors, adults (5 μM) 48 h” value is “N”. In addition, in the series on S. mansoni somules, the “Phenotypic descriptors, somules (1 μM) 24 h” value is “N”; the “Phenotypic descriptors, somules (1 μM) 48 h” value was “N”; the “Phenotypic descriptors, somules (10 μM) 24 h” value is “R, S”; the “Phenotypic descriptors, somules (10 μM) 48 h” value is “N”. Besides, in the series on adult S. mansoni, the “WormAssay (average adult worm movement ± SD)” value is 78.0 ± 20.1.

For `CC1(CNc2nc(-c3cccs3)nc(Cl)c2-c2c(F)cc(F)cc2F)N=N1` [Compound 30, 6-chloro-N-((3-methyl-3H-diazirin-3-yl)methyl)-2-(thiophen-2-yl)-5-(2,4,6-trifluorophenyl)-pyrimidin-4-amine], in the series on S. mansoni adults, the “Phenotypic descriptors, adults (5 μM) 5 h” value was “S, on sides”; the “Phenotypic descriptors, adults (5 μM) 24 h” value was “S, on sides”; the “Phenotypic descriptors, adults (5 μM) 48 h” value is on record as “S, on sides”. Moreover, the midpoint of cytotoxicity in the series “HeLa cytotoxicity”, the CC50 at 48 h, lay at 3.89 ± 1.86 µM. This compound also returned a half-maximal cytotoxic concentration (CC50) at 48 h in “HEK293 cytotoxicity” (setting [1]) of 1270 ± 35 nM. In addition, in the series on S. mansoni somules, the “Phenotypic descriptors, somules (1 μM) 24 h” value is “S”; the “Phenotypic descriptors, somules (1 μM) 48 h” value is on record as “S, R”; the “Phenotypic descriptors, somules (10 μM) 24 h” value is reported as “R, I”; the “Phenotypic descriptors, somules (10 μM) 48 h” value is on record as “R, I”. In addition, in the series with adult S. mansoni, the “WormAssay (average adult worm movement ± SD)” value came to 12.9 ± 18.1.

For the compound `O=C(C1CCCCC1)N1CC(=O)N2CCc3ccccc3C2C1` (centres unmarked) [PZQ, praziquantel, reference compound], the “WormAssay (average adult worm movement ± SD)” value in the series with adult S. mansoni stood at 1.8 ± 5.1.
